For data set [1], the system named is Plasmodium falciparum chloroquine resistant (W2) strain. The experiment in a line: In vitro antiplasmodial activity, blood smear (traditional) test, 48 h. The class given is cell-based. The following applies: W2, 48 h, read-out: IC50 ± SD P. falciparum. As for the experimental part:
The parasites were synchronized using sorbitol treatment and the parasitemia was microscopically evaluated with Giemsa-stained blood smears.
After 48 h, blood smears were prepared, coded, stained with giemsa and examined at 1000×magnification. The parasitemia of controls (considered as 100% growth) was compared to test cultures, and then the percentage of infected red blood cells was calculated.
The results were expressed as mean of half-maximal inhibitory dose (IC50), with different drug concentrations performed in triplicate and compared with drug-free controls. Curve fitting was performed using OriginPro® 8.0 software (Origin Lab Corporation, Northampton, MA, USA).

Data set [2] can be described thus: in vitro. The following applies: human, LC50 ± SD WI-26VA4. As for the experimental part: (§1) Negative controls were composed of cells without treatment. Five serial dilutions (1:10) were made from a stock solution (10 mg mL − 1) using RPMI supplemented with 1% FBS. Cell viability was evaluated after 48 h of incubation by discarding the medium and adding 100 μL of 5% MTT, followed by 3 h of incubation. Then, the supernatant was discarded, and insoluble formazan product was dissolved in DMSO. The optical density (OD) of each well was measured using a microplate spectrophotometer at 550 nm. The OD of untreated control cells was defined as 100% cell viability and all assays were performed in triplicate. The selectivity index (SI) of samples was calculated by following Eq. 1 [29].1 SI=LC50of WI-26VA4 cell line/IC50ofP.falciparumstrain W2

In data set [3] the test system is human lung fibroblast cell line WI-26VA4 (ATCC CCL-95.1). Put plainly: in vitro. The note with it: 48 h. The method, then:
as §1

This passage reports IC50 and CC50 results from publication PMC9271247, “Evaluation of antiplasmodial activity in silico and in vitro of N-acylhydrazone derivatives” (BMC Chemistry, 2022).

Usually IC50 stands for the concentration at which inhibition is half-maximal. As to `CO[C@H]1O[C@@H]2O[C@@]3(C)CC[C@H]4[C@H](C)CC[C@@H]([C@H]1C)[C@@]24OO3` [Artemether, reference compound], the half-inhibitory concentration (IC50) in data set [1] is under 1.01 µM. The compound further displayed a CC50 at 48 h in data set [2] of 100 ± 0.18 µM.
In the case of `O=C(O)CCC(=O)Nc1ccc(C(=O)N/N=C/c2cccc(O)c2)cc1` [AH6, 4-[(4-{[(2E)-2-(3-hydroxybenzylidene)hydrazino]carbonyl}phenyl)amino]-4-oxobutanoic acid], the half-inhibitory concentration (IC50) in data set [1] was over 1 µM. The same compound gave a CC50 at 48 h in data set [2] of 100 ± 0.17 µM.
For `O=C(N/N=C/c1cccc(O)c1)c1ccc(NC(=O)c2ccccc2)cc1` [AH5, N-(4-{[(2E)-2-(3-hydroxybenzylidene)hydrazino]carbonyl}phenyl) benzamide], in data set [1], the concentration for half-maximal inhibition (IC50) was 0.07 ± 0.07 µM. For the same compound, in data set [2], the CC50 at 48 h is over 100 µM. The CC50 in data set [3] was over 100 µM.
For the compound `O=C(N/N=C/c1cccc(O)c1)c1ccc(Cl)cc1` [AH2, 4-chloro-N'-[(1E)-(3-hydroxyphenyl)methylene]benzohydrazide], in data set [1], the IC50 turned out to be 2.15 ± 0.09 µM. Besides, the CC50 at 48 h in data set [2] was over 100 µM. This compound also had a CC50 in data set [3] of over 100 µM.
Take `CCN(CC)CCCC(C)Nc1ccnc2cc(Cl)ccc12` (stereo not drawn) [Chloroquine, reference compound]: the half-inhibitory concentration (IC50) in data set [1] came out at 0.057 ± 0.14 µM.
For the compound `O=C(N/N=C/c1cccc(O)c1)c1ccc([N+](=O)[O-])cc1` [AH3, N'-[(1E)-(3-hydroxyphenyl)methylene]-4-nitrobenzohydrazide], the IC50 in data set [1] was over 1 µM. The CC50 at 48 h in data set [2] came to 100 ± 0.19 µM.
As to `O=C(N/N=C/c1cccc(O)c1)c1ccccc1` [AH1, N'-[(1E)-(3-hydroxyphenyl)methylene]benzohydrazide], the IC50 in data set [1] was found to be 0.19 ± 0.1 µM. This compound also returned a CC50 at 48 h in data set [2] of over 100 µM. Also, the CC50 in data set [3] was over 100 µM.
In the case of `O=C(N/N=C/c1cccc(O)c1)c1ccc(O)cc1` [AH4, 4-hydroxy-N'-[(1E)-(3-hydroxyphenyl)methylene]benzohydrazide], the half-maximal inhibitory concentration (IC50) in data set [1] is 0.09 ± 0.05 µM. In data set [2], this compound showed a CC50 at 48 h of over 100 µM. For the same compound, the CC50 in data set [3] is over 100 µM.
For `O=C(N/N=C/c1cccc(O)c1)c1ccncc1` [AH7, N'-[(1E)-(3-hydroxyphenyl)methylene]isonicotinohydrazide], in data set [1], the IC50 was over 1 µM. For the same compound, in data set [2], the CC50 at 48 h stood at 100 ± 0.13 µM.
